{
  "source": "paper PMC7801313",
  "about": "“Effect of lurbinectedin on the QTc interval in patients with advanced solid tumors: an exposure–response analysis” (Cancer Chemotherapy and Pharmacology, 2020)",
  "key": {"cynomolgus monkeys": {"tested_on": "cynomolgus monkeys", "set-up": "method as in data on file", "conditions": "single i.v. bolus at maximum tolerated dose, ref data on file; cited from earlier work"}, "[1]": {"conditions": "cited from earlier work"}, "[2]": {"assay": "lurbinectedin plasma pharmacokinetics in the QT evaluation study", "format": "in vivo, human", "description": "In cycle 1 and cycle 2, the following triplicate ECGs were collected 5–10 min before their time-matched PK time points: 5 min before end of the lurbinectedin infusion (EOI), 30 min, 1, 3, 24, 72 (only on cycle 1), and 168 h after EOI.\nPharmacokinetic (PK) profiles of lurbinectedin were obtained on cycle 1 and cycle 2. Following ECGs’ acquisition, blood samples were collected into K3EDTA tubes. Tubes were gently inverted several times and centrifuged at 2000 × g for 10 min at 4 °C to separate the plasma.\nPlasma concentrations of lurbinectedin were measured by a validated liquid chromatography–mass spectrometry assay (Dynakin S.L., Spain), with ranges of 0.1–50 µg/L. The within- and between-day precisions ranged from 2.7 to 12.9% and from 5.1 to 10.7%, respectively. The within- and between-day accuracy (bias) ranged from 10 to 12% and from 5 to 6%, respectively.\nDatasets were prepared using SAS Enterprise Guide v.7.11 HF3 (SAS Institute Inc., Cary, NC, USA). Non-compartmental PK parameters were determined using Phoenix WinNonlin v.6.3 (Certara, USA). Non-linear mixed-effect modelling was performed in NONMEM v.7.3.0 (GloboMax LLC, Hanover, MD, USA). Graphical and all other statistical analyses were performed in R v.3.2.5 (R Foundation for Statistical Computing, Vienna, Austria)."}, "[3]": {"set-up": "method as in data on file", "conditions": "ref data on file; cited from earlier work"}, "hERG": {"tested_on": "hERG", "set-up": "method as in data on file", "conditions": "ref data on file; cited from earlier work"}, "cytochrome P450 (CYP) 3A": {"tested_on": "cytochrome P450 (CYP) 3A", "set-up": "method as in data on file", "conditions": "in vitro studies; ref data on file; cited from earlier work"}, "patients": {"tested_on": "patients", "assay": "clinical toxicity of lurbinectedin as a single agent", "format": "in vivo, human", "conditions": "to date"}, "telemetered dogs": {"tested_on": "telemetered dogs", "set-up": "method as in data on file", "conditions": "single i.v. bolus at maximum tolerated dose, ref data on file; cited from earlier work"}, "oncogenic transcription": {"tested_on": "oncogenic transcription", "set-up": "method as in PMID 20977459", "conditions": "cited from earlier work"}},
  "note": "Where “and” joins values, the source holds several entries; their conditions need not be identical. Equal entries are not always repeated. Where two headings read alike, the source gives them in different places.",
  "data": [
    {"compound": "COc1ccc2[nH]c3c(c2c1)CCN[C@]31CS[C@@H]2c3c(OC(C)=O)c(C)c4c(c3[C@H](COC1=O)N1[C@@H]2[C@H]2c3c(cc(C)c(OC)c3O)C[C@@H]([C@@H]1O)N2C)OCO4", "note": "[lurbinectedin, Lurbinectedin]", "values": [
      {"measurement": "cardiovascular changes", "setting": "cynomolgus monkeys", "result": "mild decreases in blood pressure and increased heart rate"},
      {"measurement": "effects on lead II ECG variables (PR, QT, QTcF, QTcV, QRS), ECG gross morphology, cardiac rhythm", "setting": "cynomolgus monkeys", "result": "No effects were observed"},
      {"measurement": "population estimate for total plasma clearance", "setting": "[1]; 1-h i.v. infusion, cancer patients", "result": 11.2, "unit": "L/h"},
      {"measurement": "extraction ratio", "setting": "[1]", "result": 0.19},
      {"measurement": "inter-individual variability of all PK parameters", "setting": "[1]", "result": "20.9 to 51.2", "unit": "%"},
      {"measurement": "population estimate of apparent volume at steady state", "setting": "[1]", "result": "438 L and 438.4 L"},
      {"measurement": "reduction of clearance", "setting": "[1]; co-administration of CYP3A inhibitors", "result": 30, "unit": "%"},
      {"measurement": "blood CL", "setting": "[1]; corresponding to plasma clearance", "result": "~ 17 L/h"},
      {"measurement": "reduction of clearance", "setting": "[1]; high C-reactive protein", "result": 20, "unit": "%"},
      {"measurement": "reduction of clearance", "setting": "[1]; high α-1-acid glycoprotein", "result": 28, "unit": "%"},
      {"measurement": "reduction of clearance", "setting": "[1]; low albumin", "result": 20, "unit": "%"},
      {"measurement": "observed lurbinectedin concentration, mean (Stdv)", "setting": "[2]; Cycle 1, 0.92 h after start of infusion (Cmax)", "result": "106.02 (54.52) µg/L"},
      {"measurement": "observed lurbinectedin concentration, mean (Stdv)", "setting": "[2]; Cycle 1, 1.5 h after start of infusion", "result": "40.01 (24.35) µg/L"},
      {"measurement": "observed lurbinectedin concentration, mean (Stdv)", "setting": "[2]; Cycle 1, 2 h after start of infusion", "result": "27.22 (14.05) µg/L"},
      {"measurement": "observed lurbinectedin concentration, mean (Stdv)", "setting": "[2]; Cycle 1, 4 h after start of infusion", "result": "17.86 (8.07) µg/L"},
      {"measurement": "observed lurbinectedin concentration, mean (Stdv)", "setting": "[2]; Cycle 1, 25 h after start of infusion", "result": "3.84 (1.87) µg/L"},
      {"measurement": "observed lurbinectedin concentration, mean (Stdv)", "setting": "[2]; Cycle 1, 73 h after start of infusion", "result": "1.53 (1.13) µg/L"},
      {"measurement": "observed lurbinectedin concentration, mean (Stdv)", "setting": "[2]; Cycle 1, 169 h after start of infusion", "result": "0.51 (0.45) µg/L"},
      {"measurement": "observed lurbinectedin concentration, mean (Stdv)", "setting": "[2]; Cycle 2, 0.92 h after start of infusion (Cmax)", "result": "136.60 (145.04) µg/L"},
      {"measurement": "observed lurbinectedin concentration, mean (Stdv)", "setting": "[2]; Cycle 2, 2 h after start of infusion", "result": "28.22 (16.84) µg/L"},
      {"measurement": "observed lurbinectedin concentration, mean (Stdv)", "setting": "[2]; Cycle 2, 4 h after start of infusion", "result": "18.82 (10.94) µg/L"},
      {"measurement": "observed lurbinectedin concentration, mean (Stdv)", "setting": "[2]; Cycle 2, 169 h after start of infusion", "result": "0.56 (0.57) µg/L"},
      {"measurement": "Tmax", "setting": "[2]; cycle 1", "result": 0.92, "unit": "h"},
      {"measurement": "mean clearance (non-compartmental)", "setting": "[2]; cycle 1, 39 patients", "result": 11.8, "unit": "L/h"},
      {"measurement": "mean volume of distribution (non-compartmental)", "setting": "[2]; cycle 1, 39 patients", "result": 347.7, "unit": "L"},
      {"measurement": "Tmax", "setting": "[2]; cycle 2", "result": 4, "unit": "h"},
      {"measurement": "protein binding", "setting": "[3]", "result": "highly protein-bound"},
      {"measurement": "IC50", "setting": "hERG", "result": 8.8, "unit": "µM"},
      {"measurement": "IC50 hERG", "setting": "hERG", "result": 6.9, "unit": "µg/mL"},
      {"measurement": "role of metabolism by CYP3A in clearance", "setting": "cytochrome P450 (CYP) 3A", "result": "major clearance mechanism"},
      {"measurement": "cardiac toxicity concerns", "setting": "patients", "result": "no cardiac toxicity concerns"},
      {"measurement": "cardiovascular changes", "setting": "telemetered dogs", "result": "mild decreases in blood pressure and increased heart rate"},
      {"measurement": "effects on lead II ECG variables (PR, QT, QTcF, QTcV, QRS), ECG gross morphology, cardiac rhythm", "setting": "telemetered dogs", "result": "No effects were observed"},
      {"measurement": "in vitro activity", "setting": "oncogenic transcription", "result": "low nanomolar range"}
    ]}
  ]
}
